Publication PMC7259600, “The crystal structures of Thermus thermophilus CMP kinase complexed with a phosphoryl group acceptor and donor” (PLoS ONE, 2020)

What was measured:
[1] = target: T1, ttCMPK (CMP kinase of Thermus thermophilus HB8) (Thermus thermophilus, UniProt Q5SL35); experiment: X-ray crystal structure of the ternary complex (crystal soaked with CMP, ATP and GdCl3); type: binding; conditions: with CDP and Gd3+; 1.6 A, closed form; phosphoryl donor site
T1 construct: gene cmk; full-length, expressed from pET-11a (NdeI/BamHI) in E. coli BL21(DE3), no tag mentioned; SeMet-labelled protein for the CMP open form; residue numbers up to 209
T1 sequence (Q5SL35 1-208): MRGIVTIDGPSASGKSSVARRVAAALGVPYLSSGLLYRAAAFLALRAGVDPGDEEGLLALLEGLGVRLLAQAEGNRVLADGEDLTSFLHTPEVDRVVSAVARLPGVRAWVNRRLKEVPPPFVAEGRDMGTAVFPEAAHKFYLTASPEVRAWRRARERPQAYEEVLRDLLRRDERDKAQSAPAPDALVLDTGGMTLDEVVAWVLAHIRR

[2] = target: T1, ttCMPK (CMP kinase of Thermus thermophilus HB8); experiment: X-ray crystal structure of the complex (co-crystallisation); type: binding; conditions: closed form 1.5 A (3AKE; AMP-PCP and MgCl2 in drop, no AMP-PCP density); open form 2.2 A (3W8N; SeMet protein, MgCl2); phosphoryl acceptor site

| SMILES | X-ray crystal structure of the ternary complex (crystal soaked with CMP, ATP and) [1] | X-ray crystal structure of the complex (co-crystallisation) [2] |
| --- | --- | --- |
| Nc1ncnc2c1ncn2[C@@H]1O[C@H](COP(=O)(O)OP(=O)(O)O)[C@@H](O)[C@H]1O [ADP] | ADP is recognized by several residues from both the CORE and LID domains | – |
| Nc1ccn([C@@H]2O[C@H](COP(=O)(O)O)[C@@H](O)[C@H]2O)c(=O)n1 [CMP] | – | 3W8N (CMP "open" complex), 3AKE (CMP "closed" complex) |
